Patent US20020098186A1, “Use of endothelin inhibitors for treatment or prevention of fibrotic disorders” (priority 1999, published 2002)

Tests used:
[1] = test system: aminoterminal propeptide of procollagen type III (PIIINP); assay: Serum PIIINP radioimmunoassay in BDO rats; format: in vivo, rat; conditions: LU-treated BDO rats, dose-dependent
Description: Female adult wistar rats, average weight 206±19 g, underwent the following microsurgical procedure under an operating microscope (OPMI 6-2, Zeiss, Germany) (B. Gerling, M. Becker, J. Waldschmidt, D. Schuppan (1996). J. Hepatol. 25:79-84; G. Boigk, L. Stroedter, H. Herbst H, et al. (1997). Hepatology 26:643-639.): 1. midline abdominal incision following anaesthesia with 100 mg/kg ketamine-hydroochloride (Ketanest®, Parke-Davis, Germany) and 10 mg/kg 5,6-dihydro-2-(2,6-xylidino)-4H-1,3-thiazine-hydrochloride (Rompun®, Bayer, Germany); 2. dissection of the common bile duct, insertion of a teflon catheter (Abbocath -T 26 G, venisystems, U.S.A.) and placement of a distal complete and a proximal incomplete ligature with 5-0 silk (Permahand , Ethicon, Germany); 3. retrograde injection of sodium-amidotrizoate (Ethibloc®, Ethicon Germany) at a dose of 0.02 ml/100 g body weight; 4. removal of the catheter, closure of the proximal ligature, scission of the bile duct between the ligatures and wound closure. After bile duct occlusion (BDO), animals received normal chow (Altromin®, Lage, Germany) and were allowed free access to water. […] The following therapeutic groups were formed: 1. BDO and LU at 80 mg/kg/d for 6 weeks (BDO 80/1-6:n=20); 2. […]
Standard laboratory parameters were measured by our in-hospital clinical chemical department, using an automated analyser (BM/Hitachi 747). […]

[2] = Clinical chemical serum parameters in BDO and sham-operated rats; format: in vivo, rat; conditions: for ALP / ALT / AST / Bili (total bilirubin) / γGT: serum, mean ± SD
Description: Female adult wistar rats, average weight 206±19 g, underwent the following microsurgical procedure under an operating microscope (OPMI 6-2, Zeiss, Germany) (B. Gerling, M. Becker, J. Waldschmidt, D. Schuppan (1996). J. Hepatol. 25:79-84; G. Boigk, L. Stroedter, H. Herbst H, et al. (1997). Hepatology 26:643-639.): 1. midline abdominal incision following anaesthesia with 100 mg/kg ketamine-hydroochloride (Ketanest®, Parke-Davis, Germany) and 10 mg/kg 5,6-dihydro-2-(2,6-xylidino)-4H-1,3-thiazine-hydrochloride (Rompun®, Bayer, Germany); 2. dissection of the common bile duct, insertion of a teflon catheter (Abbocath -T 26 G, venisystems, U.S.A.) and placement of a distal complete and a proximal incomplete ligature with 5-0 silk (Permahand , Ethicon, Germany); 3. retrograde injection of sodium-amidotrizoate (Ethibloc®, Ethicon Germany) at a dose of 0.02 ml/100 g body weight; 4. removal of the catheter, closure of the proximal ligature, scission of the bile duct between the ligatures and wound closure. After bile duct occlusion (BDO), animals received normal chow (Altromin®, Lage, Germany) and were allowed free access to water. […] The following therapeutic groups were formed: 1. BDO and LU at 80 mg/kg/d for 6 weeks (BDO 80/1-6:n=20); 2. BDO and LU at 80 mg/kg/d from week 4-6 of BDO (BDO 80/4-6:n=20); 3. […]
Standard laboratory parameters were measured by our in-hospital clinical chemical department, using an automated analyser (BM/Hitachi 747). The aminoterminal propeptide of procollagen type III (PIIINP) was determined using a sequential saturation radioimmunoassay based on PIINP from rat, a monospecific rabbit antiserum to rat PIIINP and a goat antiserum to rabbit IgG, using a previously described procedure (B. Gerling, M. Becker, J. Waldschmidt, D. Schuppan (1996). J. Hepatol. 25:79-84; G. Boigk, L. Stroedter, H. Herbst H, et al. (1997). Hepatology 26:643-649; d. Schuppan, J. M. Dumont, K. Y. Kim, et al. (1986). J. Hepatol. 3:27-37.). Inter- and intra-assay coefficients of variation were 12% and 5% for a normal and 4% and 3% for a pathological serum sample, resp.

[3] = test system: rat secondary biliary liver fibrosis (BDO); assay: Histological assessment (staging) of liver fibrosis in BDO rats; format: in vivo; conditions: Sham (sham operation with LU 80 mg/kg/d 6 weeks)
liver collagen = assay: Liver collagen (hydroxyproline) content in BDO rats; format: in vivo, rat
Description: Female adult wistar rats, average weight 206±19 g, underwent the following microsurgical procedure under an operating microscope (OPMI 6-2, Zeiss, Germany) (B. Gerling, M. Becker, J. Waldschmidt, D. Schuppan (1996). J. Hepatol. 25:79-84; G. Boigk, L. Stroedter, H. Herbst H, et al. (1997). Hepatology 26:643-639.): 1. midline abdominal incision following anaesthesia with 100 mg/kg ketamine-hydroochloride (Ketanest®, Parke-Davis, Germany) and 10 mg/kg 5,6-dihydro-2-(2,6-xylidino)-4H-1,3-thiazine-hydrochloride (Rompun®, Bayer, Germany); 2. dissection of the common bile duct, insertion of a teflon catheter (Abbocath -T 26 G, venisystems, U.S.A.) and placement of a distal complete and a proximal incomplete ligature with 5-0 silk (Permahand , Ethicon, Germany); 3. retrograde injection of sodium-amidotrizoate (Ethibloc®, Ethicon Germany) at a dose of 0.02 ml/100 g body weight; 4. removal of the catheter, closure of the proximal ligature, scission of the bile duct between the ligatures and wound closure. After bile duct occlusion (BDO), animals received normal chow (Altromin®, Lage, Germany) and were allowed free access to water. […] The following therapeutic groups were formed: 1. BDO and LU at 80 mg/kg/d for 6 weeks (BDO 80/1-6:n=20); 2. BDO and LU at 80 mg/kg/d from week 4-6 of BDO (BDO 80/4-6:n=20); 3. BDO and LU at 10 mg/kg/d (sham 80/ 1-6:n=10), rats without medication (control: n=10) and bile duct occluded animals without treatment for 6 weeks (BDO: n=20) served as controls. […]
Hydroxyproline (HYP) was quantified in duplicates from 0.2 g of formalin-fixed liver as described (d. Schuppan, J. M. Dumont, K. Y. Kim, et al (1986). J. Hepatol. 3:27-37; C. Genovese; D. Rowe; B. Kream (1984). Biochemistry 23. 6210-6216.). […] Absorption was read at 558 nm and HYP concentrations were determined from a standard curve with 0 to 1.6 μg HYP (Merck, Germany). The hepatic HYP concentration was calculated using the formula [formula]
and the total liver HYP content calculated by multiplication with the liver weight.

[4] = BDO/LU 80/1-6 (n = 10): BDO, LU 80 mg/kg/d week 1-6
[5] = BDO/LU 80/4-6 (n = 14): BDO, LU 80 mg/kg/d week 4-6
[6] = Sham/LU: sham operation, LU 80 mg/kg/d for 6 weeks, n = 10

For `COc1cc(OC)nc(O[C@H](C(=O)O)C(OC)(c2ccccc2)c2ccccc2)n1` [LU], the “Lowering of serum PIIINP” value [1] was 20-50%, the “Clinical chemical serum parameters (AST, ALT, alkaline phosphatase, gamma glutamyltranspeptidase, total bilirubin, creatinine)” value ([2]; all groups with BDO) was “did not differ between all groups with BDO” and the ALP ([2]; headed BDO/LU 80/1-6 (n = 20)) was 256.1 ± 49.6 U/L. The ALT ([2]; headed BDO/LU 80/1-6 (n = 20)) was 22 ± 8.4 U/L, the AST ([2]; headed BDO/LU 80/1-6 (n = 20)) was 198 ± 56.7 U/L and the “Bili (total bilirubin)” value ([2]; headed BDO/LU 80/1-6 (n = 20)) was 189.5 ± 43.2 µmol/L. The γGT ([2]; headed BDO/LU 80/1-6 (n = 20)) was 15 ± 6.4 U/L, the ALP [2, 4] was 230.7 ± 55.7 U/L and the ALT [2, 4] was 23.6 ± 10.8 U/L. For the same compound, the AST [2, 4] was 160.9 ± 78.5 U/L, the “Bili (total bilirubin)” value [2, 4] was 171.3 ± 49.5 µmol/L and the γGT [2, 4] was 32.7 ± 24.4 U/L. For the same compound, the ALP [2, 5] was 253.1 ± 75.8 U/L, the ALT [2, 5] was 40.2 ± 52 U/L and the AST [2, 5] was 229 ± 78.5 U/L. The “Bili (total bilirubin)” value [2, 5] was 209.9 ± 48.9 µmol/L, the γGT [2, 5] was 28.1 ± 26.4 U/L and the ALP [2, 6] was 85.3 ± 17.9 U/L. The ALT [2, 6] was 21.7 ± 3.3 U/L, the AST [2, 6] was 36.4 ± 7.9 U/L and the “Bili (total bilirubin)” value [2, 6] was 1.6 ± 0.5 µmol/L. The γGT [2, 6] was 0.3 ± 0.5 U/L, the “Histological assessment of fibrosis: animals at Stage 0” value [3] was 10 and the “Reduction of relative liver collagen” value (liver collagen; 10 mg/kg/d over 6 weeks of BDO) was 35%. For the same compound, the “Reduction of hepatic collagen” value (liver collagen; 80 mg LU/kg/d from week 4-6 after BDO, p<0.001) was about 50% and the “Reduction of liver collagen (both as relative and total liver collagen content)” value (liver collagen; 80 mg LU/kg/d over the 6 weeks of BDO, vs untreated BDO, p<0.001) was 50-55%.
